Measurements published in publication PMC9409992, “Immunosuppressive Cytochalasins from the Mangrove Endophytic Fungus Phomopsis asparagi DHS-48” (Marine Drugs, 2022).
Read-outs that look alike come from different tables or passages of the source.

Columns and labels:
[1] = test system: ConA-induced T murine splenic lymphocytes; test: ConA-induced T-cell (splenic lymphocyte) proliferation, CCK-8; assay type: cell-based, BALB/c mice; conditions: Mus musculus, 48 h, read-out: IC50 ConA-Induced T-Cell Proliferation
Description: (§1) The isolated compounds (1–8) were evaluated for their immunosuppressive activities against the proliferation of ConA-induced T and LPS-induced B murine splenic lymphocytes, according to previously described protocols. […] The cytotoxicity of immunosuppressive Compounds 2 and 4–6 was tested in murine splenocyte cultures for 72 h using the tetrazolium salt-based CCK-8 assay. […] Thus, we selected this particular cytochalasin for the mechanism of action studies.
(§2) Spleen cells were collected from BALB/c mice under aseptic conditions, plated in a 96-well plate at a density of 1.5 × 10^6 cells/well and activated by Con A (5 μg/mL) or LPS (10 μg/mL) in the presence of various concentrations of compounds or cyclosporine A (CsA) at 37 °C and 5% CO2 for 48 h. Then, 20 μL CCK-8 was added to each well, 4 h before the end of the incubation. Absorbance at OD450 was measured on an ELISA reader, and the IC50 value was calculated from the correlation curve between the compound concentration and the OD450.

[2] = test system: LPS-induced B murine splenic lymphocytes; test: LPS-induced B-cell (splenic lymphocyte) proliferation, CCK-8; assay type: cell-based, BALB/c mice; conditions: Mus musculus, 48 h, read-out: IC50 LPS-Induced B-Cell Proliferation
Description: as §1, §2

IL-2 mRNA = IL-2 mRNA expression by real-time quantitative PCR in ConA-stimulated splenocytes; assay type: cell-based, BALB/c mice; conditions: q-PCR, 48 h
Description: (§3) The effect of 2 on ConA-stimulated NFAT1 and NFAT-P expression was determined by Western blotting. […] In contrast, in the ConA-stimulated cells in the absence of 2, the dephosphorylated form of NFAT1 was detected, as well as the phosphorylated form. […] After 48 h of stimulation with 5 μg/mL Con A, the fluorescent NFAT1 translocated to the nucleus. […] In addition, 2 formed hydrophobic interactions with residues ILE-436, ILE-474, ARG-477, VAL-490, and VAL-498 and intermolecular interactions with residues THR-126, GLN-127, ASP-313, and PRO-340. Therefore, the immunosuppressive activity of 2 is possibly, at least in part, mediated via CaN/NFAT signaling pathway-regulated Con A-stimulated activation of splenocytes (Figure 7), highlighting its potential for use as an effective noncytotoxic natural immunosuppressant.
The obtained total RNA (2 µg) was used for cDNA synthesis with a Servicebio®RT First Strand cDNA Synthesis Kit with random primers, according to the manufacturer’s instructions. qPCR was performed ith SYBR Green qPCR Master Mix (High ROX) using ABI StepOne Plus Real-time Detection System and β-actin as internal control. […] The expression levels of genes were normalized to the expression of β-actin mRNA and analyzed using the delta-delta CT method (2^−ΔΔCT).

NFAT1 dephosphorylation = test: Western blot of ConA-stimulated NFAT1 / NFAT-P in splenocytes; assay type: cell-based, BALB/c mice; conditions: 50 μM
Description: as §3
Splenocytes were washed with PBS and lysed in PMSF lysate. After centrifugation at 12,000 rpm for 5 min, the protein concentration was determined using a BSA Protein Assay Kit. Protein lysates were separated using 10% sodium dodecyl sulfate–polyacrylamide gel electrophoresis (SDS–PAGE) and transferred to polyvinylidene difluoride (PVDF) membranes. After blocking, the membranes were incubated overnight with the respective primary antibodies against NFAT1, NFAT-P, and β-actin in 5% BSA, and the secondary antibody was horseradish peroxidase (HRP)-conjugated goat anti-rabbit IgG. […]

calcineurin (CN) = calcineurin (CN) (Homo sapiens, UniProt P63098+Q08209); test: CN phosphatase assay (p-NPP substrate, spectrophotometric); assay type: biochemical; conditions: 20 mM p-NPP substrate, pH 7.4; read-out: IC50 calcineurin (CN) inhibition
Sequence of calcineurin (CN) (P63098 whole entry, other chains not shown): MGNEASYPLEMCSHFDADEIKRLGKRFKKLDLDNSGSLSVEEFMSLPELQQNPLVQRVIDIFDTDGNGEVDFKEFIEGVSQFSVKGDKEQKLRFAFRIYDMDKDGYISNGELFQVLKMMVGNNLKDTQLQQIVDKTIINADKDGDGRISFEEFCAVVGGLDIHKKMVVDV
Description: A spectrophotometric assay was used to determine the activities of CN with 20 mM p-nitrophenyl phosphate (p-NPP) as the substrate in 1 mM CaCl2, 0.5 mM MnCl2, 2 mM CaM, 2 mM CNB, 1 mM DTT, 0.1 mg/mL bovine serum albumin (BSA), and 50 mM Tris-HCl (pH 7.4) at 4 °C. The reaction was initiated by the addition of CNA, various concentrations of compounds (6.25, 12.5, 25, 50 or 100 μM) were added, and the solution was preincubated for 10 min at 4 °C. The OD410 value was measured, and the inhibitory concentration (IC50) was calculated. DMSO (2%) was used as a vehicle control. CsA was used as a positive control.

IL-2 = IL-2 ELISA of culture supernatants of ConA-stimulated splenocytes; assay type: cell-based, BALB/c mice
Description: as §3
Splenocytes were treated as described in the RT–qPCR section, and then the IL-2 levels in the obtained culture supernatants were measured using an enzyme-linked immunosorbent assay (ELISA) kit, according to the manufacturer’s instructions. Cytokine standard curves were used to calculate the amount of IL-2, and the absorbance of each well was read at OD450 using an ELISA reader.

NFAT1 translocation = test: Immunofluorescence of NFAT1 nuclear translocation in ConA-stimulated splenocytes; assay type: cell-based, BALB/c mice; conditions: Con A 5 μg/mL, 48 h
Description: as §3
Splenocytes were seeded in a 24-well plate at a density of 5 × 10^6 cells/well, incubated with various concentrations of Compound 2 or CsA, and then activated by culturing with Con A (5 μg/mL) for 48 h. After treatment, the cells were fixed with 4% paraformaldehyde for 30 min, permeabilized in 0.5% Triton X-100 for 15 min, blocked with 5% BSA for 1 h, and then incubated overnight in the respective primary antibody; NFAT1 (D43B1) XP® Rabbit antibody was used at a 1:100 dilution in PBS. The corresponding fluorescent anti-rabbit IgG (H+L) secondary antibody was added for 1 h. […]

[3] = Cytotoxicity / cell viability in normal splenocytes, CCK-8, 72 h; assay type: cell-based, BALB/c mice; conditions: BALB/c, mouse, mean ± SD (n = 7), read-out: Cytotoxicity IC50, murine splenocytes
Description: as §1
(§4) Cell viability was evaluated using the CCK-8 method. Spleen cells were plated in a 96-well plate at a density of 1.5 × 10^6 cells/well. Then, the cells were incubated with various concentrations of compounds or 0.1% DMSO at 37 °C and 5% CO2 for 72 h. Proliferation was measured using the CCK-8 assay, as described above. Cyclosporin A (CsA) and cytochalasin D were used as positive controls.

murine splenocytes = test: as above; assay type: cell-based, BALB/c mice; conditions: mean ± SD (n = 7)
Description: as §1, §4

Compound | IC50 [1] | IC50 [2] | IC50 at 72 h [3] | other results
C=C1C(C)C2C(Cc3ccccc3)NC(=O)C23C=C2C=C(C)CC(C)CC(O)C2C3C1O (stereo not drawn) [Compound 3, Phomoparagin C] | > 200 µM | > 200 µM |  | 
C=C1C(C)C2C(Cc3ccccc3)NC(=O)C23C(=O)C=CC(C)(O)CC(C)CC=CC3C1O (stereo not drawn) [Compound 8, fragiformin B] | > 200 µM | > 200 µM |  | 
C=C1C(C)C2C(Cc3ccccc3)NC(=O)C23C(OC(C)=O)C2C=C(C)CC(C)CC(O)C2C3C1O (stereo not drawn) [Compound 2, Phomoparagin B] | 21.6 ± 1.7 µM | 78.5 ± 1.3 µM | 111.7 ± 1.1 µM | Transcription level of Con A-stimulated IL-2 mRNA (IL-2 mRNA): decreased with increasing concentrations of 2; Effect on ConA-stimulated dephosphorylation of NFAT (NFAT1 dephosphorylation): strongly inhibited the dephosphorylation of NFAT; IC50 (calcineurin (CN)): 17.9 ± 0.4 µM; IL-2 protein level (secretion) (IL-2): confirmed the effects of 2 at the IL-2 protein level; Effect on Con A-stimulated translocation of NFAT1 from cytoplasm to nucleus (NFAT1 translocation): blocked the Con A-stimulated translocation of NFAT1 from the cytoplasm to the nucleus in a dose-dependent manner
C=C1C(C)C2C(Cc3ccccc3)NC(=O)C23C(O)C2C=C(C)CC(C)CC(O)C2C3C1O (stereo not drawn) [Compound 4, phomopchalasin A] | 32.8 ± 2.4 µM | 145 ± 2.2 µM | 373.7 ± 3.3 µM | 
C=C1[C@@H](C)[C@H]2[C@H](Cc3ccccc3)NC(=O)[C@]23[C@H](OC(C)=O)/C=C/[C@@](C)(O)C(=O)[C@@H](C)C/C=C/[C@H]3[C@@H]1O [Cytochalasin D, cytochalasin D, reference compound] |  |  |  | IC50 [3]: 1 µM
C=C1C(C)C2C(Cc3ccccc3)NC(=O)C23C(OC(C)=O)C=CC(C)(O)CC(C)CC=CC3C1O (stereo not drawn) [Compound 6, cytochalasin H] | 11.2 ± 0.3 µM | 103 ± 1.1 µM | 42.2 ± 1.7 µM | IC50 (murine splenocytes): 42.2 ± 1.7 µM
C=C1C(C)C2C(Cc3ccccc3)NC(=O)C23C(O)C=CC(C)(O)CC(C)CC=CC3C1O (stereo not drawn) [Compound 7, cytochalasin J] |  |  |  | IC50 ([1]; Con A 5 μg/mL, CCK-8, mean ± SD, three experiments): > 200 µM; IC50 ([2]; LPS 10 μg/mL, CCK-8, mean ± SD, three experiments): > 200 µM
C=C1C(C)C2C(Cc3ccccc3)NC(=O)C23C(O)C(O)C2C(C)=CC(C)CC4OC1C3C42 (stereo not drawn) [Compound 5, phomopchalasin B] | 31.2 ± 2.5 µM | 154.4 ± 0.4 µM | 84.4 ± 0.3 µM | 
C=C1C(C)C2C(Cc3ccccc3)NC(=O)C23C(O)C2C=C(C)CC(C)CC4OC1C3C42 (stereo not drawn) [Compound 1, Phomoparagin A] | > 200 µM | > 200 µM |  | 
